Experimental data as given in US20250339462A1, “CANCER TREATMENT USING ULTRA-HIGH CONCENTRATION GASEOUS NITRIC OXIDE AND A CHECKPOINT INHIBITOR” (Beyond Air, Inc., priority 2022, published 2025).

Assays:
[1] = test system: PD-L1 expression on CT26 PI negative cells; assay: In vitro UNO exposure of CT26 cells, PD-L1 expression by flow cytometry; format: cell-based, mouse
Method: Preparation of cells—Mouse colon carcinoma CT26.WT cells (ATCC number: CRL-2638) were grown to a 70-80% confluency and harvested using trypsin. Following, the cells were centrifuged at 1,200 revolutions per minute (rpm)—241 G for 8 minutes, then the pellet was re-suspended in 1 ml of cell media (RPMI—1640 supplemented with 10% FBS and 1% Pen-Strep). The cells were counted using an automated cell counter and a total of 2×10^6 cells were seeded into each […] containing 9 ml cell media. The plates were then placed for 24 hours in an incubator at 37° C., 5% CO2.
UNO treatment—Following 24 hours of incubation, cell media was removed, and the plate was placed in an acrylic box stationed within an operating chemical fume hood. Prior to the initiation of treatment, the box was exposed to UV for 1 hour to reduce the chances of contamination. The box was closed and sealed with parafilm. A PVC delivery line was placed within a designated hole on the top of the box and lowered until approximately 5 cm within the box. The flowmeter was set to 1 LPM to expose the cells for the durations and concentrations described in Table 3 (control cells were untreated).
Following treatment, 9 ml of cell media were added to each well and the plate was placed for 24 hours in an incubator at 37° C., 5% CO2.
Flow cytometry—Cell media was removed to a 50 ml centrifuge tube. […]

[2] = test system: CT26 tumor-bearing mice; assay: CT26 tumor model, UNO + anti-mPD-1 + CpG-B; format: in vivo, mouse
Method: Preparation of cancer cells for injection—Mouse colon carcinoma CT26.WT cells (ATCC, Cat no. CRL-2638) suspended in Hanks' Balanced Salt Solution (HBSS) (Biological Industries, Israel), at a concentration of 5.0×10^6 cells/ml, were freshly prepared on the day of cancer model induction. Cells were grown to 70% confluency and were harvested using trypsin (Biological Industries, Israel), and counted using a cell counter device. The cells were then centrifuged at 1,200 rpm (241×g) for 8 minutes, and the pellet was re-suspended in ice cold HBSS at 5.0×10^6 in 1 ml (5.0×10^5 cells in 100 μl solution). Cell viability was >90% as determined by trypan blue staining prior to inoculation to mice. At the point of inoculation, cells were at passage 8 at most.
Inoculation of CT26 cancer cells to mice—100 μl/mouse of the_CT26 cancer cells suspension (concentration of 5.0×10^6 cells/ml) were inoculated subcutaneously (s.c.) to the right flank of male BALB/c mice, which were 10 weeks of age (Envigo, the Netherlands). Five days later, CT26 cells at the same dose were inoculated s.c. to the left flank of each mouse. Ten days post primary tumor inoculation tumor-bearing mice were divided into the following groups (day 0) as depicted in Table 2 below and treated according to the timeline shown in FIG. 20:
Mice were followed up for totally 52 days. Tumor take was monitored by palpation of the flank and tumor growth was monitored by measurement of the tumor dimensions using a digital caliper. Mice were sacrificed and excluded from the study if their total tumor volume was >1500 mm^3 or their distress scoring >12 as was accepted according to the IACUC IL-2112-105-5.
UNO treatment—On the day of treatment, mice were anesthetized by an intraperitoneal (i.p.) injection of 100 mg/kg ketamine and 10 mg/kg of xylazine hydrochloride solution. Tumor-bearing mice were treated with 50,000 ppm of UNO delivered into the tumor by a 23 G needle over 5 minutes, at 0.2 LPM. After treatment, all mice were warmed and closely monitored until complete recovery was observed. […]

[N]=O [UNO, nitric oxide]
PI negative cells expressing PD-L1 ([1]; 25,000-100,000 ppm for 10 s, 30 s or 1 min, depending on dosage and time of exposure): 70-90% | Mean fluorescent intensity (MFI) of PD-L1 expression ([1]; UNO dosage and time dependent manner): increased | Percentage of mice with primary tumor complete regression ([2]; 42 days after treatments (FIG. 16)): 10% | Distant tumor rejection, percentage of mice ([2]; 42 days following treatments (FIG. 17)): 11% | Percentage of group surviving ([2]; 52 days following primary tumor inoculation): 10%
